Source: US9593305B2, “Differentiation of pluripotent stem cells” (Janssen Biotech, Inc., priority 2008, dated 2017)

Tested on: H1 human embryonic stem cells
Assay: Secondary assay: panel of compounds with growth factor combinations and muscimol, no activin A (Example 6, Table 5)
Type: cell-based
Settings: for Cell Number, % of positive control / Cell Number, Average Total Cell Number / Sox17 Expression, % of positive control / Sox17 Expression, Average Total Intensity: no AA (with Wnt3a)
Protocol: Clusters of H1 human embryonic stem cells were grown on reduced growth factor […]™ (Invitrogen; Cat #356231)-coated tissue culture plastic. Cells were passaged using collagenase (Invitrogen; Cat #17104-019) treatment and gentle scraping, washed to remove residual enzyme, and plated with even dispersal at a ratio of 1:1 (surface area) on reduced growth factor […]™-coated 96-well black plates (Packard ViewPlates; PerkinElmer; Cat #6005182) using volumes of 100 μl/well. Cells were allowed to attach as clusters and then recover log phase growth over a 1 to 3 day period, feeding daily with MEF-conditioned medium supplemented with 8 ng/ml bFGF (R&D Systems; Cat #233-FB). Plates were maintained at 37° C., 5% CO2 in a humidified box throughout the duration of the assay. Stocks of growth factors purchased from R&D Systems were EGF (Cat #236-EG), FGF4 (Cat #235-F4), PDGF-A (Cat #221-AA), PDGF-D (Cat #1159-SB), PDGF-A/B (Cat #222-AB), and VEGF (Cat #293-VE). […] All growth factors were solubilized in PBS with 0.1% BSA (Sigma; Cat #A7888) and stored frozen at −80° C. […] Cat #D2650) and stored frozen at −80° C. Compounds were available as 5 mM stocks in 96-well plate format, solubilized in 100% DMSO and stored at −80° C. Compounds were further diluted to an intermediate concentration of 0.2 mM in 50 mM HEPES (Invitrogen; Cat #15630-080), 20% DMSO and stored at 4° C. All growth factors and inhibitors were prepared in a deep well, 96-well polypropylene plate, diluted to 5× intermediate stocks in DMEM:F12 base medium at the beginning of assay and stored at 4° C. A secondary screening assay was conducted, testing in triplicate and feeding on alternate days over the four-day assay timeframe. Assays were initiated by aspirating culture medium from each well followed by three washes in PBS to remove residual growth factors and serum. Test volumes of 80 μl per well were added back containing DMEM:F12 base medium (Invitrogen; Cat #11330-032) supplemented with 0.625% FCS (HyClone; […] All remaining growth factors were tested at a final assay concentration of 50 ng/ml (EGF, FGF4, PDGF-A, PDGF-A/B, VEGF). […] At the conclusion of four-days of culture, assay plates were washed twice with PBS, fixed with 4% paraformaldehyde (Alexis Biochemical; Cat #ALX-350-011) at room temperature for 20 minutes, then washed three times with PBS and permeabilized with 0.5% Triton X-100 (Sigma; Cat #T8760-2) for 20 minutes at room temperature. Cells were washed again three times with PBS and blocked with 4% chicken serum (Invitrogen; Cat #16110082) in PBS for 30 minutes at room temperature. Primary antibody (goat anti-human SOX17; R&D Systems; cat #AF1924) was diluted 1:100 in 4% chicken serum and added to each well for one hour at room temperature. Alexa Fluor 488 conjugated secondary antibody (chicken anti-goat IgG; Molecular Probes; Cat #AZ1467) was diluted 1:200 in PBS and added to each sample well after washing three times with PBS. To counterstain nuclei, 4 μg/ml Hoechst 33342 (Invitrogen; Cat #H3570) was added for ten minutes at room temperature. Plates were washed once with PBS and left in 100 μl/well PBS for imaging. Imaging was performed using an IN Cell Analyzer 1000 (GE Healthcare) utilizing the 51008bs dichroic for cells stained with Hoechst 33342 and Alexa Fluor 488. Exposure times were optimized from positive control wells and from untreated negative control wells stained with secondary antibody alone. Images from 15 fields per well were acquired to compensate for any cell loss during the bioassay and subsequent staining procedures. […] Segmentation for the nuclei was determined based on grayscale levels (baseline range 100-300) and nuclear size. Averages and standard deviations were calculated for each replicate data set. Total SOX17 protein expression was reported as total intensity or integrated intensity, defined as total fluorescence of the cell multiplied by the area of the cell. […]

[1] = EGF + FGF4 + PDGF-AB + Muscimol

SMILES | Cell Number, % of positive control (EGF) [%] | Cell Number, Average Total Cell Number (EGF) | Sox17 Expression, % of positive control (EGF) [%] | Sox17 Expression, Average Total Intensity (EGF) | Cell Number, % of positive control (EGF + FGF4) [%] | Cell Number, Average Total Cell Number (EGF + FGF4) | Sox17 Expression, % of positive control (EGF + FGF4) [%] | Sox17 Expression, Average Total Intensity (EGF + FGF4) | Cell Number, % of positive control (EGF + FGF4 + PDGF-A + Muscimol) [%] | Cell Number, Average Total Cell Number (EGF + FGF4 + PDGF-A + Muscimol) | Sox17 Expression, % of positive control (EGF + FGF4 + PDGF-A + Muscimol) [%] | Sox17 Expression, Average Total Intensity (EGF + FGF4 + PDGF-A + Muscimol) | Cell Number, % of positive control (EGF + FGF4 + PDGF-A + VEGF) [%] | Cell Number, Average Total Cell Number (EGF + FGF4 + PDGF-A + VEGF) | Sox17 Expression, % of positive control (EGF + FGF4 + PDGF-A + VEGF) [%] | Sox17 Expression, Average Total Intensity (EGF + FGF4 + PDGF-A + VEGF) | Cell Number, % of positive control (EGF + FGF4 + PDGF-AB) [%] | Cell Number, Average Total Cell Number (EGF + FGF4 + PDGF-AB) | Sox17 Expression, % of positive control (EGF + FGF4 + PDGF-AB) [%] | Sox17 Expression, Average Total Intensity (EGF + FGF4 + PDGF-AB) | further results
O=C1NCCCc2cncc(c2)-c2ncnc(n2)Nc2cccc(c2)CN2CCCC1C2 (stereo not drawn) [Compound 17, 3,5,7,14,20,26,31-Heptaazapentacyclo[22.3.1.1-2,6˜1˜8,12˜1˜14,18˜]hentriaconta-1(28), 2(31), 3,5,8(30), 9,11,24,26-nonaen-19-one] | 73.43 | 6942 | 0.74 | 1.27E+06 | 60.69 | 5738 | 1.83 | 3.14E+06 | 144.37 | 13649 | 8.43 | 1.45E+07 | 110.85 | 10480 | 5.23 | 8.97E+06 | 47.10 | 4453 | 0.54 | 9.30E+05 | Cell Number, % of positive control [1]: 109.91%; Cell Number, Average Total Cell Number [1]: 10391; Sox17 Expression, % of positive control [1]: 5.20%; Sox17 Expression, Average Total Intensity [1]: 8.92E+06; Cell Number, % of positive control (EGF + PDGF-A + VEGF): 60.59%; Cell Number, Average Total Cell Number (EGF + PDGF-A + VEGF): 5728; Sox17 Expression, % of positive control (EGF + PDGF-A + VEGF): 1.24%; Sox17 Expression, Average Total Intensity (EGF + PDGF-A + VEGF): 2.14E+06; Cell Number, % of positive control (FGF4 + PDGF-A + VEGF): 139.59%; Cell Number, Average Total Cell Number (FGF4 + PDGF-A + VEGF): 13198; Sox17 Expression, % of positive control (FGF4 + PDGF-A + VEGF): 7.54%; Sox17 Expression, Average Total Intensity (FGF4 + PDGF-A + VEGF): 1.29E+07
O=C1NCCCc2cncc(c2)-c2ncnc(n2)Nc2cccc(c2)CN2CCC1CC2 [Compound 22, 1,8,10,12,16,22,30-Heptaazapentacyclo[22.2.2.1-3,7˜0.1˜9,13˜1-14,18˜]hentriaconta-3(31), 4,6,9(30), 10,12,14(29), 15,17-nonaen-23-one] | 149.19 | 14105 | 1.02 | 1.75E+06 | 137.19 | 12971 | 6.05 | 1.04E+07 | 122.80 | 11610 | 7.77 | 1.33E+07 | 132.44 | 12522 | 4.59 | 7.88E+06 | 175.36 | 16580 | 5.01 | 8.60E+06 | Cell Number, % of positive control [1]: 155.23%; Cell Number, Average Total Cell Number [1]: 14676; Sox17 Expression, % of positive control [1]: 3.27%; Sox17 Expression, Average Total Intensity [1]: 5.61E+06; Cell Number, % of positive control (EGF + PDGF-A + VEGF): 215.48%; Cell Number, Average Total Cell Number (EGF + PDGF-A + VEGF): 20372; Sox17 Expression, % of positive control (EGF + PDGF-A + VEGF): 2.91%; Sox17 Expression, Average Total Intensity (EGF + PDGF-A + VEGF): 4.99E+06; Cell Number, % of positive control (FGF4 + PDGF-A + VEGF): 129.85%; Cell Number, Average Total Cell Number (FGF4 + PDGF-A + VEGF): 12277; Sox17 Expression, % of positive control (FGF4 + PDGF-A + VEGF): 2.86%; Sox17 Expression, Average Total Intensity (FGF4 + PDGF-A + VEGF): 4.90E+06
CCN1CCCc2cccc(c2)-c2ncnc(n2)Nc2cccc(c2)CCNC(=O)C1 [Compound 29, 18-Ethyl-3,5,7,15,18,28-hexaazatetracyclo[20.3.1.1˜2,6˜0.1˜8,12˜]octacosa-1(26), 2(28), 3,5,8(27), 9,11,22,24-nonaen-16-one] | 18.84 | 1971 | −9.00 | −1.44E+07 | 71.10 | 7436 | −2.72 | −4.35E+06 | 96.30 | 10071 | 1.85 | 2.95E+06 | 84.70 | 8858 | −4.48 | −7.15E+06 | 62.48 | 6535 | −4.71 | −7.52E+06 | Cell Number, % of positive control [1]: 13.15%; Cell Number, Average Total Cell Number [1]: 1376; Sox17 Expression, % of positive control [1]: −8.91%; Sox17 Expression, Average Total Intensity [1]: −1.42E+07; Cell Number, % of positive control (EGF + PDGF-A + VEGF): 84.91%; Cell Number, Average Total Cell Number (EGF + PDGF-A + VEGF): 8880; Sox17 Expression, % of positive control (EGF + PDGF-A + VEGF): −5.34%; Sox17 Expression, Average Total Intensity (EGF + PDGF-A + VEGF): −8.53E+06; Cell Number, % of positive control (FGF4 + PDGF-A + VEGF): 77.89%; Cell Number, Average Total Cell Number (FGF4 + PDGF-A + VEGF): 8146; Sox17 Expression, % of positive control (FGF4 + PDGF-A + VEGF): −3.02%; Sox17 Expression, Average Total Intensity (FGF4 + PDGF-A + VEGF): −4.82E+06
O=C1CCN2CCN(CC2)Cc2cc(Cl)cc(c2)Nc2ncnc(n2)-c2cncc(c2)CCCN1 [Compound 34, 5-Chloro-1,8,10,12,16,22,26,32-octaazapentacyclo[24.2.2.1˜3.7˜0.1˜9,13˜0.1˜14.18˜]tritriaconta-3(33), 4,6,9(32), 10,12,14(31), 15,17-nonaen-23-one] | 124.89 | 13062 | 17.39 | 2.78E+07 | 125.58 | 13133 | 76.85 | 1.23E+08 | 116.72 | 12208 | 34.83 | 5.56E+07 | 123.36 | 12901 | 31.35 | 5.01E+07 | 119.83 | 12532 | 68.41 | 1.09E+08 | response with growth factors (cell numbers and SOX17 expression) (2.5 μM, all growth factor combinations tested, no activin A): significant synergistic responses with all growth factors tested; Cell Number, % of positive control [1]: 151.18%; Cell Number, Average Total Cell Number [1]: 15811; Sox17 Expression, % of positive control [1]: 4.32%; Sox17 Expression, Average Total Intensity [1]: 6.90E+06; Cell Number, % of positive control (EGF + PDGF-A + VEGF): 112.84%; Cell Number, Average Total Cell Number (EGF + PDGF-A + VEGF): 11801; Sox17 Expression, % of positive control (EGF + PDGF-A + VEGF): 2.53%; Sox17 Expression, Average Total Intensity (EGF + PDGF-A + VEGF): 4.04E+06; Cell Number, % of positive control (FGF4 + PDGF-A + VEGF): 145.93%; Cell Number, Average Total Cell Number (FGF4 + PDGF-A + VEGF): 15262; Sox17 Expression, % of positive control (FGF4 + PDGF-A + VEGF): 7.18%; Sox17 Expression, Average Total Intensity (FGF4 + PDGF-A + VEGF): 1.15E+07
